Source: patent publication US9974782B2, “Phosphodiesterase inhibitors and uses thereof” (THE TRUSTEES OF COLUMBIA UNIVERSITY IN THE CITY OF NEW YORK, priority 2008, dated 2018)

Legend:
[1] = system: CA1 region of hippocampal slices from APP/PS1 and WT mice; test: Electrophysiological analysis (BST, LTP) of hippocampal slices perfused with inhibitor; type: cell-based, mouse; details: for effect on LTP impairment in words: slices from APP/PS1 (transgenic) mice, 10 min prior to tetanus
[2] = system: APP/PS1 mice; test: Contextual and cued fear conditioning; type: in vivo, mouse; details: for effect on contextual fear memory in words: APP/PS1 (transgenic) mice
Protocol: Given that sildenafil reversed LTP deficits in 3-month-old APP/PS1, it was then tested whether the inhibitor reversed the cognitive defects in these animals. As reported above sildenafil offers the advantage of crossing the BBB and therefore it can be easily utilized in behavioural experiments. Three-month-old mice were divided into 4 groups: APP/PS1 with sildenafil, APP/PS1 with vehicle, WT with sildenafil and WT with vehicle. Sildenafil and vehicle control solutions were administered i.p. at a concentration of 3 mg/kg. This concentration was chosen based on previous studies showing that these amounts of sildenafil raise hippocampal cGMP levels and improve memory in aged rats^A6 and mice^A7 independent of vascular effects^A6. The effects of acute administration of sildenafil was first examined on fear-conditioning learning, a type of learning that is impaired in several AD mouse models^A14 and depends on hippocampus and amygdala. The hippocampus is indispensable for contextual fear conditioning^A15, a form of associative learning in which mice must associate a neutral stimulus with an aversive one. Mice were trained to associate neutral stimuli with an aversive one. They were placed in a new context (fear conditioning box), exposed to a white noise cue (CS) paired with a mild foot shock (US), and injected with sildenafil immediately after the training. Fear learning was assessed twenty-four hours later by measuring freezing behaviour—the absence of all movement except for that necessitated by breathing—in response to representation of the context or of the auditory cue within a completely different context. No difference was found in the freezing behaviour among the four groups of mice before the training phase (FIG. 2A). Twenty-four hours later, a decrease in the freezing behaviour of vehicle-treated APP/PS1 mice compared with that of vehicle-treated WT littermates in the analysis of the contextual learning was observed (FIG. 2A). […] Fear conditioning, a hippocampus-independent task A^15, was next tested and no difference in freezing among the 4 groups was found, as APP/PS1 mice are known to have a selective hippocampus-dependent impairment in associative learning^A14.
Sildenafil was tested to determine whether a brief course of treatment can provide long term benefits. The PDE5 inhibitor was examined to see if it maintains its protective effect against synaptic dysfunction and memory loss. In these experiments, both APP/PS1 and WT mice of 3 months of age were injected intraperitoneally with 3 mg/kg/day sildenafil for 3 weeks, then the treatment was stopped for 9-12 weeks prior to testing. The mice were next subjected to training for contextual learning. […] There were no differences between the 4 groups in the cued conditioning test.
Three-month-old APP/PS1 and WT mice were separated into 4 groups: APP/PS1 mice treated with vehicle, APP/PS1 mice treated with PDE inhibitor, WT mice treated with vehicle, and WT mice treated with PDE inhibitor. […] In the remaining experiments, sildenafil was injected via i.p. The drug was administered either acutely or for 1 course of 3 week treatment. For assessment of the short-term effects of sildenafil, the drug was given at a concentration of 3 mg/kg immediately after the training. This dose yields concentrations of ˜2.5 μM cGMP in the hippocampus^A53. For assessment of long-term effects, sildenafil was given daily by i.p. injection at a concentration of 3 mg/kg for 3 weeks and then treatment was stopped for 9-12 weeks prior to behavioral testing. Contextual and cued fear conditioning was performed for 3 days. Radial-arm water-maze (RAWM) was performed for 3 weeks. Then, the animals were sacrificed for electrophysiological recordings. To decide the time of administration of sildenafil in the acute experiments, a series of studies was performed in which the inhibitor was injected i.p. at 5 min before the electric shock or at 5 min before the first acquisition trial with the radial arm water maze. […]

[3] = Pharmacokinetics testing, plasma and brain (LC-MS/MS)
Protocol: The pharmacokinetic studies were conducted in male BABL/c mice. The blood and brain samples were collected at predetermined times from three mice per time point. […] An LC-MS/MS method was developed to determine these compounds in plasma and brain samples.
Quantification was achieved by the internal standard method using peak area ratios of the analysis to the internal standard in plasma and brain. Concentrations were calculated using a weighted least-squares linear regression (W=1/×2). The major pharmacokinetic parameters were calculated and the brain-to-plasma distribution ratios were estimated.
The PDE5 inhibitor was prepared by dissolving the test article in 0.5% methyl cellulose to yield final concentrations at 5 mg/mL for PO administration.
Mice were sacrificed by cervical dislocation after blood harvest. The plasma were separated via centrifugation (4° C., 3500 rpm, 10 min) and stored in −80° C. before analysis.
Frozen unknown plasma samples were thawed at room temperature and vortexed thoroughly. With a pipette, 25 μL of plasma was transferred into a 1.5 mL Eppendorf tube. To each sample, 25 μL of methanol and 25 μL of the internal standard were added, followed by the addition of 100-μL methanol. The sample mixture was vortexed for approximately 1 min. After centrifugation at 11000 g for 5 min, the upper organic layer was transferred to a glass tube and evaporated at 40° C. under a gentle stream of nitrogen. Residues were dissolved in 150 μL of the mobile phase, and mixed in a vortex mixer. A 20-μL aliquot of the resulting solution was injected onto the LC/MS/MS system for analysis.
Brains were collected immediately after mice death. The brains were excised, weighed, and rinsed by cold saline and then frozen at −80° C. until further process for LC/MS/MS analysis.
On the day of the assay, the frozen tissue samples were thawed unassisted at room temperature. When completely thawed, each tissue sample of 200 mg was weighed and placed into a plastic tube. Methanol (1.0 mL) was added to facilitate homogenization, which was conducted using a Fluko F6/10 superfine homogenizer for approximately 1 min. Then, the homogenized samples were vortexed for 1 min. A 25-μL aliquot of the homogenized samples was transferred into an Eppendorf tube. To each sample, 25 μL of methanol and 25 μL of the internal standard were added. The sample mixture centrifuged at 11000 g for 5 min. A 20-μL aliquot of the supernatants was diluted to 80 μL or 60 μL with the mobile phase and a 10-μL aliquot was injected onto the LC/MS/MS system for analysis.
We then investigated the PK and BBB penetration capability of YF012403. After p.o. administration at 50 mg/kg to BABL/c mice, plasma and brain concentrations were determined by the LC-MS/MS.

[4] = male, BABL/c, mouse, in vivo, po, 50 mg/kg, half-life in the brain
[5] = male, BABL/c, mouse, in vivo, po, 50 mg/kg, half-life in the plasma
[6] = APP/PS1 slices, sildenafil 50 nM
[7] = WT slices, 120 min after tetanus, sildenafil 50 nM, tadalafil 50 nM, IC354 1 μM
[8] = WT slices, sildenafil or tadalafil 50 nM
[9] = slices of 3-month-old APP/PS1 mice, 120 min after tetanus, 10 min perfusion (sildenafil 50 nM, tadalafil 50 nM, IC354 1 μM)
[10] = 3 month-old WT, sildenafil 3 mg/Kg or tadalafil 1 mg/Kg i.p.
[11] = APP/PS1, 3 mg/Kg i.p. for 3 weeks at 3 months, tested 9-12 weeks later
[12] = WT, 3 mg/Kg i.p. for 3 weeks at 3 months, tested 9-12 weeks later

Compound: COc1ccc(CNc2c(CO)cnc3c(C4CC4)cc(C#N)cc23)cc1Cl [YF012403, 4-(3-chloro-4-methoxybenzylamino)-8-cyclopropyl-3-(hydroxymethyl)-quinoline-6-carbonitrile]
- effect on LTP impairment in words [1]: rescues the defect in LTP
- effect on contextual fear memory in words [2]: attenuated
- Kp ([3]; male, BABL/c, mouse, brain, oral, 50 mg/kg): 0.41
- Cmax ([3]; male, BABL/c, mouse, in vivo, po, 50 mg/kg): 385 ng/g
- half-life [3, 4]: 1.04 h
- half-life [3, 5]: 1.33 h
- log BB ([3]; mouse, in vivo): −0.38
- time of peak plasma concentration after dosing ([3]; p.o., 50 mg/kg, BABL/c mice): 0.5 h

Compound: CCCc1nn(C)c2c(=O)[nH]c(-c3cc(S(=O)(=O)N4CCN(C)CC4)ccc3OCC)nc12 [sildenafil, 5-[2-ethoxy-5-(4-methyl-1-piperazinylsulphonyl)phenyl]-1-methyl-3-n-propyl-1,6-dihydro-7H-pyrazolo[4,3-d]pyrimidin-7-one]
- basal neurotransmission without tetanus as % of vehicle-treated WT slices [1, 6]: ~96%
- basal neurotransmission without tetanus, fEPSP % of baseline [1, 6]: 99.99±3.71%
- LTP, fEPSP slope as % of baseline [1, 7]: 213.26±13.66%
- level of LTP as % of vehicle-treated WT slices [1, 7]: ~99%
- basal synaptic responses without tetanus as % of vehicle-treated WT slices [1, 8]: ~97%
- basal synaptic responses without tetanus, fEPSP % of baseline [1, 8]: 100.51±2.34%
- effect on LTP impairment in words [1]: reverses LTP impairment
- minimum effective dose that completely rescues synaptic plasticity ([1]; slices of 3-month-old APP/PS1 mice): 50 nM
- LTP, fEPSP slope as % of baseline [1, 9]: 215.08±11.85%
- level of LTP as % of vehicle-treated WT littermates [1, 9]: ~100%
- LTP as % of vehicle-treated WT slices ([1]; slices of 6 month old APP/PS1 mice, 500 nM): 93%
- minimum effective dose that completely rescues LTP ([1]; slices of 6 month old APP/PS1 mice, 10 min bath application): 500 nM
- effect on BST (fEPSP slope) in words ([1]; slices of 6 month old APP/PS1 mice, different concentrations): do not change fEPSP slope
- minimum time needed for a positive effect on contextual fear memory ([2]; 3 mg/kg, treated at 3 months, tested at 6-8 months): 2 weeks
- minimum concentration needed to improve contextual fear memory ([2]; 3-month-old APP/PS1, acute): 3 mg/kg
- contextual freezing time as % of vehicle-treated WT mice ([2]; 3 month-old APP/PS1, sildenafil 3 mg/Kg i.p. after training, 24 hrs): about 87%
- contextual freezing time ([2]; 3 month-old APP/PS1, sildenafil 3 mg/Kg or tadalafil 1 mg/Kg i.p., 24 hrs after training): 28.95±3.94%
- contextual freezing as % of vehicle-treated WT mice [2, 10]: about 89%
- contextual freezing time [2, 10]: 30.1±3.11%
- effect on cued conditioning in words ([2]; 3 months old APP/PS1 and WT, 3 mg/kg): do not affect freezing during cued conditioning
- effect on contextual fear memory in words [2]: complete
- contextual freezing as % of vehicle-treated WT mice [2, 11]: ~97%
- contextual freezing time [2, 11]: 30.32±1.98%
- freezing time as % of vehicle-treated APP/PS1 mice ([2]; APP/PS1, injected i.p. 5 min before the electric shock): ~90%
- contextual freezing as % of vehicle-treated WT mice [2, 12]: ~104%
- contextual freezing time [2, 12]: 32.41±1.88%
- minimum concentration needed to improve contextual fear memory ([2]; treated at 3 months, tested at 6-8 months): 3 mg/kg
- half-life [3, 4]: 0.84 h
- half-life [3, 5]: 1.21 h
